Source: patent US10196417B2, “Baicalin magnesium compound and its preparation method and application” (CHENGDE MEDICAL UNIVERSITY, priority 2016, dated 2019)
≈ marks a conversion by molar mass, not a printed value. Marks after values point to notes of the source that are not given here.

Columns and labels:
[1] = test system: mice with acute liver injury induced by D-galactose; experiment: Protection against liver injury (D-galactose-induced acute liver injury); format: in vivo; settings: intragastric, 10 mg/kg baicalin or equivalent, 5 days, D-galactose 0.5 g/kg i.p. on day 4
Protocol: 40 healthy mice were randomly divided into 4 groups, a normal group, a model group, a baicalin group and a baicalin magnesium group. Mice in the baicalin group were administrated with baicalin at a dose of 10 mg/kg, and mice in the baicalin magnesium group were administrated with baicalin magnesium at a dose equivalent to 10 mg/kg of baicalin. Mice in the normal group and the model group were intragastrically administrated with the same volume of normal saline for 5 days. On the fourth day, mice in the model group and the administration groups were intraperitoneally injected with 0.5 g/kg of D-galactose, and mice in the normal group were intraperitoneally injected with the same volume of normal saline. The activities of ALT, AST, SOD and GSH-Px in the serum and the content of MDA were detected. Variance analysis was performed by SPSS-19.0 statistical software.

[2] = test system: yeast-induced febrile rats; experiment: Antipyretic effect in yeast-induced febrile rats; format: in vivo, SD male rats; settings: for Body temperature change ΔT: intragastric 80 mg/kg baicalin or equivalent; for ΔT comparing the baicalin magnesium with the baicalin: difference between groups
Protocol: SD male rats were randomly divided into 4 groups, a control group, a model group, a baicalin group and a baicalin magnesium group. Rats were raised in a normal day/night cycle and at room temperature (22±2° C.) and a relative humidity of (50±2)%. Three days before the test, rats were placed in the experimental environment to adapt to the experimental conditions. Rats having a basal body temperature of 37.5-39.0° C. were selected for test The rats were fasted for 12 hours before the test, and the body temperature of rats was measured once every 1 hour when tested. Average of three body temperature values (the temperature values would be removed if a difference between the highest value and the lowest value was greater than 0.5° C.) of rats was used as the basal body temperature.
The rats were intragastrically administrated with baicalin or baicalin magnesium, and then immediately subcutaneously injected with 20% of dried yeast saline suspension (not for the control group). The administration mode was as follows: rats in the control group were intragastrically administrated with 2 ml/kg of normal saline and subcutaneously injected with 10 ml/kg of normal saline; rats in the model group were ntragastrically administrated 2 ml/kg of normal saline and subcutaneously injected with 2 g/kg of yeast; rats in the baicalin group were intragastrically administrated with 80 mg/kg of baicalin and subcutaneously injected with 2 g/kg of yeast; and rats in the baicalin magnesium group were intragastrically administrated with baicalin magnesium (equivalent to 80 mg/kg of baicalin) and subcutaneously injected with 2 g/kg of yeast. The body temperature of the rats was measured once every 2 hours for 14 hours to observe the temperature change of rats (ΔT, ° C.) at different time after injection of the yeast.

[3] = test system: acetic acid-induced pain in mice; experiment: Analgesia: acetic acid-induced writhing; format: in vivo; settings: 0.067 g/kg (baicalin equivalent) intragastric once per day 7 days; for Analgesia %: vs blank control; for Number of writhing: writhing within 15 minutes after 0.6% acetic acid i.p.
Protocol: 40 mice, 20-22 g in weight, were randomly divided into 4 groups each having 10 mice, a baicalin (0.067 g/kg) group, a baicalin magnesium (equivalent to 0.067 g/kg of baicalin) group, a blank control group (administrated with normal saline), and an aspirin positive control group (0.15 g/kg). The mice were intragastrically administrated once per day for successive 7 days. After 30 minutes of final administration, the mice were intraperitoneally injected with 0.6% acetic acid saline solution at a dose of 0.2 mL/10 g; the number of writhing responses in the mice within 15 minutes was counted. Analgesia % was calculated as follows: Analgesia %=[(average number of writhing responses of the blank control group−average number of writhing responses of the drug administration group)/average number of writhing responses of the blank control group]×100%. Single-factor variance analysis was performed on data by the SPSS19.0 statistical software, and P<0.05 was of statistical significance.

[4] = test system: mice with cerebral ischemia; experiment: Learning and memory function in mice with cerebral ischemia (water maze test); format: in vivo; settings: i.p. 12.5 mg/kg baicalin or equivalent for 12 days after carotid clipping 20 min
Protocol: 80 healthy mice were randomly divided into 4 groups each having 20 mice, a model group, a sham-operation group, a baicalin group and a baicalin magnesium group. For the model group, mice were intraperitoneally injected with 1% of pentobarbital sodium for anesthesia, and then the left and right common carotid arteries were exposed and separated. The left and right arteries were immediately clipped with a vessel clamp for 20 minutes. The vessel clamp then were released; arteries were sutured; and the mice were put back in the cage for breeding. For the sham-operation group, the left and right common carotid arteries were exposed by the same method as above but without clipping. The left and right arteries were sutured, and the mice were put back in the cage for breeding. For the baicalin group, the operation was the same as that for the model group, and on the second day after the operation the mice were intraperitoneally injected with 12.5 mg/kg of baicalin for successive 12 days. For the baicalin magnesium group, the operation was the same as that for the model group, and on the second day after the operation the mice were intraperitoneally injected with baicalin magnesium (at a dose equivalent to 12.5 mg/kg of baicalin) for successive 12 days. The mice in the sham-operation group and the model group were administrated with the same volume of normal saline. Water Maze Test: a circular water tank for test was 120 cm in diameter and 60 cm in height; a cylindrical platform was 10 cm in diameter and 40 cm in height; and an interior of the circular water tank was black. A camera connected to a display was provided to record the movement of mice. During the test, the water depth was 12 cm, and the water temperature was (25±2) ° C. All space signs around the maze remained unchanged throughout the test. Water Maze Test for Memory: on the day before the beginning of the test, each of mice were familiar with the water environment in the maze for 2 minutes. The mice were randomly placed in water close to walls of maze from four different quadrants (North, West, South and East, in one period of time), and the time from the mice entering water to climbing on the platform was recorded as an escape latency. […] The mice were continuously trained for 15 days at a frequency of two times of training per day. Each group of animals was subjected to a water maze test in turn. The path on the first day had two blind ends; the path on the second day had three blind ends; and the path on the third day, the fourth day and the fifth day had four blind ends. The mice were placed in water toward the walls, and the time from the mice entering water to arriving at the platform (latency) and the number of entering the blind ends were recorded. […]

[5] = Water solubility at 37° C. (equilibrium solubility method); format: physicochemical; settings: for solubility: 37 °C, thermodynamic from solid
Protocol: The solubility of the baicalin and the solubility of the baicalin magnesium in water at 37° C. were measured by a conventional solubility measurement method.

Row | Compound | ALT (serum) [1] | AST (serum) [1] | GSH-Px (serum) [1] | MDA (serum) [1] | SOD (serum) [1] | Body temperature change ΔT ([2]; 6 h after yeast 2 g/kg s.c.) | Body temperature change ΔT ([2]; 8 h after yeast 2 g/kg s.c.) | Analgesia % [3] | Number of writhing [3] | Escape Latency [4] | Number of Errors [4] | solubility [5] | ΔT comparing the baicalin magnesium with the baicalin ([2]; 6 h) | ΔT comparing the baicalin magnesium with the baicalin ([2]; 8 h) | Water solubility relative to the solubility of the baicalin ([5]; 37° C.)
1 | O=C(O)[C@H]1O[C@@H](Oc2cc3oc(-c4ccccc4)cc(=O)c3c(O)c2O)[C@H](O)[C@@H](O)[C@@H]1O [Baicalin] | 191.4 ± 19.4 U/L | 168.5 ± 11.9 U/L | 9.8 ± 0.9 U/L | 3.1 ± 0.4 nmol/L | 45.2 ± 2.9 U/L | 0.4 °C | 0.8 °C | 33.7* % | 17.54 ± 4.44 | 38.88 ± 11.99 s | 4.56 ± 3.78 | 0.058 mg/mL (≈ 0.13 mM) |  |  | 
2 | O=C(O)C1O[C@@H](Oc2cc3oc(-c4ccccc4)cc(=O)c3c(O)c2O)C(O)[C@@H](O)[C@@H]1O (stereo partly drawn) [Baicalin Magnesium, baicalin magnesium] | 165.1 ± 8.7*^Δ U/L | 139.8 ± 13.7*^Δ U/L | 11.8 ± 0.5*^Δ U/L | 2.1 ± 0.3*^Δ nmol/L | 48.2 ± 2.9 U/L | 0.2 °C | 0.3 °C | 60.6*^Δ % | 10.43 ± 3.56*^Δ | 26.54 ± 8.34*^Δ s | 3.82 ± 2.12*^Δ | 129 mg/mL (≈ 289 mM) | 0.2 °C | 0.5 °C | 2225 times
